Experimental data from US9315522B2, “Antibacterial compounds” (JANSSEN SCIENCES IRELAND UC, priority 2012, dated 2016).
Values after ≈ are worked out from the molar mass of the structure shown. Values joined by “and” are separate entries in the source; they are usually repeats but may differ in a detail not shown here. Equal values may be shown once.

Columns and labels:
[1] = target: T1, S. aureus ATCC 29213 FabI (Staphylococcus aureus, UniProt Q6GI75); test: Staphylococcus aureus FabI enzyme inhibition assay; type: biochemical; conditions: read-out: FabI (300.235) IC50 (converted)
T1 sequence (Q6GI75 1-256): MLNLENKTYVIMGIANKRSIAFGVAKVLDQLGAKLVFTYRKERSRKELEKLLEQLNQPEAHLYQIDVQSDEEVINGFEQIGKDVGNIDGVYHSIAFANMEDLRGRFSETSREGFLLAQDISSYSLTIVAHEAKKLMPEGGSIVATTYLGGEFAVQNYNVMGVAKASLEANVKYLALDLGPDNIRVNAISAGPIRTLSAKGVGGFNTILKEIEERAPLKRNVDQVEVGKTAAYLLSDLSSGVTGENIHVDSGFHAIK
Procedure: Y.1 FabI Enzyme Inhibition: Staphylococcus aureus FabI Enzyme Inhibition Assay
FabI enzyme inhibition assays were carried out in half-area, 384-well microtitre plates. Compounds were evaluated in 40-μl assay mixtures containing 100 mM NaADA, pH 6.5 (ADA=N-[2-acetamido]-2iminodiacetic acid), 250 μM crotonoyl-CoA, 625 μM NADH and 50 μg/ml S. aureus ATCC 29213 FabI. Inhibitors were typically varied over the range of 50 to 0.39 μM. The reaction mixtures were incubated for 30 minutes at room temperature and the reaction was stopped by adding 200 mM Tris buffer (pH 9.0) to create a pH-shift. The consumption of NADH was monitored by measuring the change in absorbance at […]. By comparing sample readings to those of negative (absence of compound) and positive (absence of enzyme) controls, the percent inhibition of enzymatic activity of the compounds was determined A best-fit curve is fitted by a minimum of squares method. From this an IC50-value (expressed in μg/ml), resulting in 50% inhibition of enzymatic activity, was obtained.

[2] = system: Staphylococcus aureus ATCC 29213; test: Antibacterial susceptibility testing, IC90 determination (STA); type: cell-based; conditions: Staphylococcus aureus, ATCC29213, Staphylococcus aureus ATCC 29213, broth microdilution, resazurin; read-out: STA (361.159) IC90
Procedure: (§1) The following bacteria were used: Staphylococcus aureus ATCC 29213, methicillin-resistant Staphylococcus aureus (MRSA) ATCC 700788 and Escherichia coli ATCC 35218. The bacteria used in this study were grown overnight in flasks containing 100 ml Mueller-Hinton broth (Difco cat. nr. 0757-17) in sterile de-ionized water, with shaking, at 37° C. Stocks were store at −70° C. until use.
(§2) Bacteria were incubated on a tryptic soy agar plate containing 5% sheep blood (Becton Dickinson cat. nr. 254053) for 18-24 hours at 35° C. in aerobic conditions (first passage). For the second passage, fresh Mueller-Hinton broth is inoculated with 5-10 colonies and grown overnight at 35° C. until turbidity (reaching log-phase) in aerobic conditions is reached. The bacterial suspension is then adjusted to 0.5 McFarland density and further diluted 1:100 in Mueller Hinton broth medium. This is used as inoculum.
The result(s) are depicted the table below (for STA ATCC 29213).
(§3) MIC assays were performed by the broth microdilution method in a 96-well format (flat-bottom microtitre plates) with a final volume of 0.1 ml Mueller Hinton broth containing two-fold serial dilutions of compounds and inoculated with 5×10^5 CFU/ml of bacteria (standard inoculum size according to CLSI guidelines). Inhibitors are typically varied over the range of 63 to 0.49 μM. The final DMSO concentration in the assay was 1.25% (maximum tolerable DMSO concentration=6%). In the assays where the effect of human serum on the activity of the compounds against S. aureus was tested, human serum was added at a final concentration of 10%. The plates were incubated at 35° C. for 16-20 hours. At the end of incubation the bacterial growth was quantified fluorometrically. For this, resazurin was added to all wells and the plates were re-incubated. The incubation time is dependent on the type of bacteria. A change in color from blue to pink indicated the growth of bacteria. The fluorescence was read in computer-controlled fluorometer (Fluoroskan Ascent FL, Labsystems) at an excitation wavelength 540 nm and an emission wavelength of 590 nm. The % growth inhibition achieved by the compounds was calculated according to standard methods. The IC90 (expressed in μg/ml) was defined as the 90% inhibitory concentration for bacterial growth. A panel of reference compounds were simultaneously tested for QC approval.

[3] = system: S. aureus; test: Antibacterial susceptibility testing, IC90 determination with 10% human serum (STA + 10% HS); type: cell-based, Staphylococcus aureus; conditions: Staphylococcus aureus, human serum at final concentration of 10%, read-out: STA + 10% HS (361.169) IC90
Procedure: as §1, §2, §3
The results are depicted in the table(s) below (STA+10% HS).

[4] = Cytotoxicity MTT assay (HELAM); type: cell-based, Human; conditions: human, HelaM cells, read-out: HELAM (222.125) CC50
Procedure: Cytotoxicity of the compounds was evaluated using the MTT assay. Human HelaM cells grown in 96-well plates were exposed to serial dilutions of the tested compounds (final volume of 0.2 ml) and incubated for 72 hours at 37° C. and 5% CO2. Inhibitors are typically varied over the range of 25 to 0.8 μM. The final DMSO concentration in the assay is 0.5%. MTT (3-(4,5-Dimethylthiazol-2-yl)-2,5-diphenyltetrazolium bromide, a tetrazole) was added and reduced to purple formazan only in living cells. Solubilization of the formazan crystals was achieved by adding 100 μl 2-propanol. Cell viability was determined by measuring the absorbance of the reduced formazan, giving a purple color, at 540 nm and 690 nm. The absorbance measured at 690 nm was automatically subtracted from the absorbance at 540 nm, to eliminate the effects of non-specific absorption. The percent cytotoxicity achieved by the compounds was calculated according to standard methods. Cytotoxicity is reported as CC50, the concentration that causes a 50% reduction in cell viability.
The results are depicted in the table(s) below (HELAM).

| Compound | IC50 [1] [nM] | IC90 [2] [µg/mL] | IC90 [3] [µg/mL] | CC50 at 72 h [4] [µg/mL] | melting point |
| --- | --- | --- | --- | --- | --- |
| O=C(Nc1ccc(/C=C/C(=O)N2CC3C=C(c4ccccc4)CC3C2)cn1)c1cccnc1 (stereo not shown) [Cpd. No. 3] | 1810 | 0.21 (≈ 0.481 µM) | 0.79 | 1.23 (≈ 2.82 µM) | 238 °C |
| Cc1cncc(C(=O)Nc2ccc(/C=C/C(=O)N3CC4C=C(c5ccccc5)CC4C3)cn2)c1 (stereo not shown) [compound 1] | 1820 | 0.17 (≈ 0.377 µM) | 0.67 | > 4.5 | 214 °C |
| O=C(Nc1ccc(/C=C/C(=O)N2CC3C=C(c4ccccc4)CC3C2)cn1)c1ccoc1 (stereo not shown) [compound 2] | 7590 | 0.21 (≈ 0.494 µM) | 1.66 | 7.57 (≈ 17.8 µM) | 202 °C |
| Cc1cncc(C(=O)Nc2ccc(/C=C/C(=O)N3CC4C=C(c5ccsc5)CC4C3)cn2)c1 (stereo not shown) [compound 5] | 1730 | < 0.22 | 0.36 | 10.1 (≈ 22.1 µM) | 208.43 °C |
| Cc1cncc(C(=O)Nc2ccc(/C=C/C(=O)N3CC4C=C(c5ccncc5)CC4C3)cn2)c1 (stereo not shown) [compound 8] | 1240 | 0.316 (≈ 0.7 µM) | 0.398 | > 11.3 | 202.82 °C |
| CC(=O)Nc1ccc(/C=C/C(=O)N2CC3C=C(c4ccccc4)CC3C2)cn1 (stereo not shown) [compound 10] | 1070 | 0.34 (≈ 0.91 µM) | 0.5 | > 9.38 | 251 °C and 251.61 °C |
| Cc1occc1C(=O)Nc1ccc(/C=C/C(=O)N2CC3C=C(c4ccccc4)CC3C2)cn1 (stereo not shown) [compound 11] | 3230 | 0.47 (≈ 1.07 µM) | 3.33 | 5.16 (≈ 11.7 µM) | 140 °C |
| O=C(Nc1ccc(/C=C/C(=O)N2CC3C=C(c4ccccc4)CC3C2)cn1)c1ccncc1 (stereo not shown) [compound 12] | 2040 | 0.5 (≈ 1.15 µM) | 1.58 | > 11 | 184 °C |
| O=C(Nc1ccc(/C=C/C(=O)N2CC3C=C(c4ccccc4)CC3C2)cn1)c1ccccc1 (stereo not shown) [compound 13] | 3560 | 0.76 (≈ 1.75 µM) | 5.36 | > 10.9 | 120 °C |
| O=C(Cc1ccncc1)Nc1ccc(/C=C/C(=O)N2CC3C=C(c4ccccc4)CC3C2)cn1 (stereo not shown) [compound 14] | 1730 | 0.86 (≈ 1.91 µM) | 2.65 | > 11.3 | 239.7 °C |
| Nc1ccc(/C=C/C(=O)N2CC3C=C(c4ccccc4)CC3C2)cn1 (stereo not shown) [compound 15] | 2350 | 1.23 (≈ 3.71 µM) | 2.43 | > 8.32 | 236 °C |
| Cc1cncc(C(=O)Nc2ccc(/C=C/C(=O)N3CC4C=C(c5ccnn5C)CC4C3)cn2)c1 (stereo not shown) [compound 16] | 1320 | 1.25 (≈ 2.75 µM) | 1.63 | > 11.4 | 173.34 °C |
| O=C(Cc1ccncc1)Nc1ccc(/C=C/C(=O)N2CC3C=C(c4ccncc4)CC3C2)cn1 (stereo not shown) [compound 17] | 1440 | 1.33 (≈ 2.95 µM) | 1.4 | > 4.51 | > 250 °C |
| COC(=O)CCC(=O)Nc1ccc(/C=C/C(=O)N2CC3C=C(c4ccccc4)CC3C2)cn1 (stereo not shown) [compound 18] | 2560 | 1.6 (≈ 3.59 µM) | 3.05 | > 11.2 | 216 °C and 216.42 °C |
| Cc1cc(C(=O)Nc2ccc(/C=C/C(=O)N3CC4C=C(c5ccccc5)CC4C3)cn2)c(C)o1 (stereo not shown) [compound 19] | 4670 | 1.61 (≈ 3.55 µM) | 16.1 | 10.8 (≈ 23.7 µM) | 184.41 °C |
| COc1cncc(C(=O)Nc2ccc(/C=C/C(=O)N3CC4C=C(c5ccncc5)CC4C3)cn2)c1 (stereo not shown) [compound 30] | 1390 | < 0.23 | < 0.23 | > 11.7 | 142 °C |
| COc1cncc(C(=O)Nc2ccc(/C=C/C(=O)N3CC4C=C(c5ccnn5C)CC4C3)cn2)c1 (stereo not shown) [compound 31] | 659 | 0.72 (≈ 1.53 µM) | 0.86 | > 11.8 | 89.36 °C |
| COc1cncc(C(=O)Nc2ccc(/C=C/C(=O)N3CC4C=C(c5nccs5)CC4C3)cn2)c1 (stereo not shown) [compound 32] | 718 | < 0.23 | < 0.23 | > 11.9 | 207 °C |
| COc1cncc(C(=O)Nc2ccc(/C=C/C(=O)N3CC4C=C(c5ccsc5)CC4C3)cn2)c1 (stereo not shown) [compound 33] | 1290 | < 0.23 | < 0.23 | > 11.9 | 205 °C |
| O=C1Nc2ncc(/C=C/C(=O)N3CC4C=C(c5ccsc5)CC4C3)cc2CO1 (stereo not shown) [compound 35] | 839 | 0.16 (≈ 0.407 µM) | 0.37 | > 3.93 | > 250 °C |
| O=C1COc2cc(/C=C/C(=O)N3CC4C=C(c5ccncc5)CC4C3)cnc2N1 (stereo not shown) [compound 36] | 1130 | 0.16 (≈ 0.412 µM) | < 0.08 | > 3.88 | > 260 °C |
| O=C1COCc2cc(/C=C/C(=O)N3CC4C=C(c5ccccc5)CC4C3)cnc2N1 (stereo not shown) [compound 39] | ~1620 | < 0.19 | 0.35 | > 10.1 | 266.57 °C and 266.6 °C |
| O=C1COCc2cc(/C=C/C(=O)N3CC4C=C(c5ccsc5)CC4C3)cnc2N1 (stereo not shown) [compound 41] | 1030 | < 0.2 | 0.23 | > 10.2 | 152 °C |
| O=C1COCc2cc(/C=C/C(=O)N3CC4C=C(c5nccs5)CC4C3)cnc2N1 (stereo not shown) [compound 49] | ~930 | 0.25 (≈ 0.612 µM) | 0.24 | > 10.3 | 260.34 °C |
| CN1CC(=O)Nc2ncc(/C=C/C(=O)N3CC4C=C(c5ccccc5)CC4C3)cc2C1 (stereo not shown) [compound 50] | 965 | 0.35 (≈ 0.844 µM) | 0.4 | > 20.8 | 202 °C |
| O=C1Nc2ncc(/C=C/C(=O)N3CC4C=C(c5ccccc5)CC4C3)cc2CO1 (stereo not shown) [compound 51] | 903 | 0.35 (≈ 0.903 µM) | 0.71 | > 9.73 | > 250 °C |
